Measurements: PubChem BioAssay AID1259411 (Chemical Carcinogenesis Research Information System (CCRIS), 2018)
The source made the active and inactive calls. How the calls were made is not given here.

Test system: rodent carcinogenicity bioassays, tumor incidence
Test: CCRIS carcinogenicity studies
Details: Dose: 0
Summary of the method: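 NCI-built, expert-reviewed records of carcinogenicity and related test outcomes (mutagenicity, tumor promotion/inhibition) compiled from published and report sources, historical span 1985-2011, not updated.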

O[C@@H]1c2ccccc2-c2nc3ccccc3cc2[C@H]1O
carcinogen call (Species: MOUSE, Strain/Sex: SWISS/FEMALE, Route: INTRAPERITONEAL, 1.05 UMOL GIVEN AS 150 NMOL IN 5 µL DMSO WITHIN 24 HR OF BIRTH, 300 NMOL IN 10 µL DMSO ON D 8 OF LIFE, AND 600 NMOL I): inactive; negative
carcinogen call (Species: MOUSE, Strain/Sex: SWISS/MALE, Route: INTRAPERITONEAL, 1.05 UMOL GIVEN AS 150 NMOL IN 5 µL DMSO WITHIN 24 HR OF BIRTH, 300 NMOL IN 10 µL DMSO ON D 8 OF LIFE, AND 600 NMOL I): inactive; negative

O=C(O)COc1ccc(Cl)cc1Cl (tested in a mixture with another compound)
carcinogen call (Species: MOUSE, Strain/Sex: B6C3F1/FEMALE, Route: DERMAL, 100, 200 MG/KG BW IN ETHANOL 5/WK FOR 104 WK (STUDY DURATION: 104 WK), 100, 200 MG/KG BW IN ETHANOL 5/WK FOR 104 WK (STUDY DURATION: 104 WK), Tumor Site: Type of Lesion: LIVER: HEPATOCELLULAR ADENOMA, HEPATOCELLULAR CARCINOMA, HEPATOCELLULAR ADENOMA OR CARCINOMA OR HEPATOBLASTOMA): active; positive
carcinogen call (Species: MOUSE, Strain/Sex: B6C3F1/MALE, Route: DERMAL, 100, 200 MG/KG BW IN ETHANOL 5/WK FOR 104 WK (STUDY DURATION: 104 WK), 100, 200 MG/KG BW IN ETHANOL 5/WK FOR 104 WK (STUDY DURATION: 104 WK), Tumor Site: Type of Lesion: KIDNEY: RENAL TUBULE ADENOMA, RENAL TUBULE ADENOMA OR CARCINOMA, LIVER: HEPATOCELLULAR ADENOMA, HEPATOCELLULAR CARCINOMA): active; positive
carcinogen call (Species: RAT, Strain/Sex: F344/FEMALE, Route: DERMAL, 50, 100 MG/KG BW IN ETHANOL 5/WK FOR 104 WK (STUDY DURATION: 104 WK), 50, 100 MG/KG BW IN ETHANOL 5/WK FOR 104 WK (STUDY DURATION: 104 WK), Tumor Site: Type of Lesion: KIDNEY: RENAL TUBULE ADENOMA OR CARCINOMA): equivocal
carcinogen call (Species: RAT, Strain/Sex: F344/MALE, Route: DERMAL, 50, 100 MG/KG BW IN ETHANOL 5/WK FOR 104 WK (STUDY DURATION: 104 WK), 50, 100 MG/KG BW IN ETHANOL 5/WK FOR 104 WK (STUDY DURATION: 104 WK)): inactive; negative

C=COC(N)=O
carcinogen call (Species: MOUSE, Strain/Sex: B6C3F1/MALE, Route: INTRAPERITONEAL, 2.5 UG/G BW IN 10 µL TRIOCTANOIN ONCE (STUDY DURATION: 9 MO), Tumor Site: Type of Lesion: LIVER: HEPATOMA): active; positive
carcinogen call (Species: MOUSE, Strain/Sex: CD-1/FEMALE, Route: DERMAL, 11.5 UMOL IN WEEKS 1 AND 2 THEN 5.7 UMOL IN WEEKS 3 AND 4 FOLLOWED BY 3.8 UMOL/WK FOR 28 WK (STUDY DURATION: 42 WK), Tumor Site: Type of Lesion: SKIN: PAPILLOMA, CARCINOMA): active; positive
carcinogen call (Species: MOUSE, Strain/Sex: STRAIN-A/FEMALE, Route: INTRAPERITONEAL, 34, 68 NMOL/G BW IN 5 µL TRIOCTANOIN ONCE (STUDY DURATION: 6 MO), 34, 68 NMOL/G BW IN 5 µL TRIOCTANOIN ONCE (STUDY DURATION: 6 MO), Tumor Site: Type of Lesion: LUNG: ADENOMA): active; positive
carcinogen call (Species: RAT, Strain/Sex: SPRAGUE-DAWLEY/FEMALE, Route: INTRAMUSCULAR, 1.15, 2.3 UMOL IN 0.25 ML TRIOCTANOIN 1/WK FOR 10 WK (STUDY DURATION: 18 MO), 1.15, 2.3 UMOL IN 0.25 ML TRIOCTANOIN 1/WK FOR 10 WK (STUDY DURATION: 18 MO)): inactive; negative
